US9358281B2, “Methods, agents and peptides for inducing an innate immune response in HIV vaccination” (New York University, priority 2009, dated 2016)
Entries after “also recorded” stand apart in the source; their conditions may differ. Where two headings read alike, the source gives them in different places.

Assays:
Assay type in all cases: cell-based, human
[1] = tested on: monocyte-derived dendritic cells (MDDC); details: for effect on MDDC activation (CD86 in GFP+) by HIVGFP(G)+SIVVLP(G): inhibitor added within the first 24 hours of infection
[2] = tested on: STAT1; test: Immunoblot of phospho-STAT1 over time in MDDC; details: after treatment or infection
Procedure: Western blot analysis: Cells were lysed in 1% NP-40, 50 mM Tris pH 8, 120 mM NaC, 4 mM EDTA, 50 mM NaF, 1 mM NA3VO4 and a protease inhibitors cocktail (Roche). Total lysates were resolved on SDS-PAGE, transferred to PVDF membranes and probed with primary antibodies and corresponding HRP-conjugated secondary antibodies.
Western blot analysis: Cells were lysed in 1% NP-40, 50 mM Tris pH 8, 120 mM NaCl, 4 mM EDTA, 50 mM NaF, 1 mM NA3VO4 and a protease inhibitor cocktail (Roche). Total lysates were resolved on SDS-PAGE, transferred to PVDF membranes and probed with primary antibodies and corresponding HRP-conjugated secondary antibodies (GE Healthcare).

[3] = tested on: naive CD4+ T cells; test: Naive T cell proliferation assay (CFSE dilution) with infected DC and anti-CD3; details: 25 μM AZT or 1 μM SCY
Procedure: Naive T cell proliferation assay: 48 h after infection, naive T cells were labeled with CFSE (eBioscience) as described previously (Antons et al., 2008). DC were infected with dilutions of SIVVLP(G) and pLaiΔEnv-GFP3(G) WT (indicated as HIVGFP(G)) or G89V. AZT was added at the time of infection and SCY was added from 3 to 8 hours after infection. 48 hours after infection, half of the DC was processed for surface staining and cytometry. The other half was washed with media and resuspended in fresh media without cytokines. 20,000 T cells were mixed with DC at a DC to T ratio of 1:5 and 1:15. Cells were stimulated by dilutions of anti-CD3 (OKT3 hybridoma supernatant, approximately 1-100 ng/ml) in a total volume of 150 to 200 μl in round bottom 96-well plates. Cells were harvested and analyzed by flow cytometry at day 4 or day 5 postactivation.

Molecule | effect on LPS- or poly(I:C)-induced CD86 up-regulation [1] | effect on MDDC activation (CD86 in GFP+) by HIVGFP(G)+SIVVLP(G) [1] | effect on MDDC activation (CD86 in GFP+) by HIVGFP(G)+SIVVLP(G) ([1]; listed as Raltegravir) | time at which STAT1 phosphorylation was present [2] [h] | ability of treated, HIVGFP(G) and SIVVLP(G) infected DC to induce proliferation [3]
Cc1nnc(C(=O)NC(C)(C)c2nc(C(=O)NCc3ccc(F)cc3)c(O)c(=O)n2C)o1 [RAL, Raltegravir] | had no effect | blocked activation | inhibited transduction efficiency and MDDC activation |  | 
lipopolysaccharide [LPS] |  |  |  | 2 | 
Cc1cn([C@H]2C[C@H](N=[N+]=[N-])[C@@H](CO)O2)c(=O)[nH]c1=O [AZT, Zidovudine] | had no effect | blocked activation; also recorded: inhibited transduction efficiency and MDDC activation |  |  | reduced ability to induce proliferation
